Data taken from paper PMC10743653, “Combined In Silico and In Vitro Analyses to Assess the Anticancer Potential of Thiazolidinedione–Thiosemicarbazone Hybrid Molecules” (International Journal of Molecular Sciences, 2023).

How the values were obtained:
[1] = Ferric-reducing antioxidant power (FRAP) assay
From the text: Antioxidant activity is a complex procedure, usually happening through several multiple or predominant chemical mechanisms (i.e., hydrogen atom transfer (HAT), single electron transfer (SET), and the ability to chelate transition metals), and it is influenced by many factors, which cannot be fully described with one single method. Therefore, it is important to perform more than one type of measurement to take into account the various mechanisms of antioxidant action. In this study, to assess the antioxidant activity of TZD–TSCs 2–5, two complementary tests were used: a DPPH (2,2-diphenyl-1-picrylhydrazyl) free radical-scavenging ability assay, that detects the HAT and SET mechanisms, and a FRAP (ferric reducing antioxidant power) assay, that prefers the […] mechanism. The antioxidant powers of 2–5 were compared to standard antioxidants, such as the water-soluble synthetic analogue of vitamin E (Trolox) and ascorbic acid (vitamin C).
Each compound concentration (25, 75, 150, and 200 μg/mL, respectively) was dissolved in Milli-Q water and mixed with an equal volume of 0.2 M sodium phosphate buffer (pH 6.6) and 1% potassium ferricyanide. The mixture was incubated for 30 min at 37 °C. Thereafter, 10% trichloroacetic acid (w/v) was added and the mixture was centrifuged at 1000 g for 5 min. One mL of the upper layer was mixed with an equal volume of Milli-Q water and 0.1% ferric chloride. The absorbance was read at 700 nm using an EL800 Universal Microplate Reader (BioTek Instruments, Winooski, VT, USA). Ascorbic acid (0–150 μg/mL) was used as a positive control.

[2] = system: HT29 cells; assay: MTT assay, HT29; assay type: cell-based, human; settings: for IC50: Homo sapiens, HT-29, HT29, MTT, 24 h treatment, mean ± SD; for SI (selectivity index): IC50 CCD 841 CoTr divided by IC50 HT29
Description: The effects of TZD–TSCs 2–5 on the cellular viability of a panel of cell lines were investigated through an 3-(4,5-dimethylthiazol-2-yl)-2,5-diphenyl-2H-tetrazolium bromide (MTT) assay, following a 24 h treatment with the compounds. The panel consisted of three solid tumor cells: T98G (glioblastoma multiforme), HepG2 (hepatocellular carcinoma, epithelial), and HT29 (colon adenocarcinoma, epithelial), as well as noncancerous cells CCD 841 CoTr (normal colon, epithelial).
Primary single dose screenings of TZD–TSCs 2–5 were performed at a concentration of 200 μg/mL, and those that elicited a greater than 80% inhibition of cell proliferation were analyzed at several concentrations, to find their half-maximal inhibitory concentration (IC50). The IC50 values, reported as the mean ± SD in Table 2, indicate the concentration of the tested compound that inhibits the growth/viability of the cancer cell population by 50%. In this specific case of an MTT assay, which measures the activity of mitochondrial dehydrogenases (as an indicator of cell viability), the IC50 values stand for the concentration that inhibits the metabolic activity of cells by 50%.
Human colon adenocarcinoma cells, HT29 (ATCC no. HTB-38), derived from a grade I tumor, were cultured in roswell park memorial institute Medium (RPMI) 1640 medium, supplemented with 10% fetal calf serum (FCS) (GibcoTM, Paisley, UK) and antibiotics (100 U/mL penicillin and 100 μg/mL streptomycin) (Sigma, St. Louis, MO), at 37 °C in a humidified atmosphere with 5% CO2. Human normal colon epithelial cells, CCD 841 CoTr (ATCC no. CRL-1807), were cultured in RPMI 1640 + dulbecco’s modified eagle medium (DMEM) (1:1) medium (Sigma, St. Louis, MO), supplemented with 10% FCS and antibiotics, at 34 °C in a 5% CO2/95% air atmosphere. Human glioblastoma T98G cells were cultured in Dulbecco’s Modified Eagle’s Medium (DMEM) (Sigma Aldrich, St. Louis, MO, USA), supplemented with 10% fetal bovine serum (FBS), penicillin (100 U/mL), and streptomycin (100 μg/mL). Human hepatocellular carcinoma cells, HepG2, were maintained in Eagle’s Minimum Essential Medium, supplemented with 10% FBS, penicillin (100 U/mL), and streptomycin (100 μg/mL).
After 24 h of incubation of the cells with the tested compounds in 100 μL of culture medium, MTT solution (5 mg/mL, 25 μL/well) was added and incubated for an additional 3 h. The purple crystals of formazan which formed in the medium were solubilized overnight in 10% sodium dodecyl sulphate (SDS) in a 0.01 M HCl mixture. The product was quantified spectrophotometrically by measuring its absorbance at 570 nm using an Emax Microplate Reader (Molecular Devices Corporation, Menlo Park, CA, USA).

[3] = system: HepG2 cells; assay: ECM cell invasion assay (colorimetric), HepG2; assay type: cell-based, human
Description: The anti-invasion effects of 2 and 3 were examined using a Cell Invasion Assay Kit (ECM550, CHEMICON—Millipore Co., Billerica, MA, USA). In brief, 10^5 tumor cells were suspended in medium with 10% FBS and plated into the upper chamber, containing 8 μm pore size polycarbonate membrane precoated with ECMatrix, followed by filling the lower chamber with the same medium, enriched with the investigated compounds. Afterwards, cells were incubated for 24 h and allowed to invade towards the bottom chamber (with medium + 10% FBS). The non-invading cells on the upper membrane surface were removed with a cotton swab and the invasive cells, i.e., cells attached to the lower membrane surface, were stained with 0.1% crystal violet. For colorimetric quantitation, the stained cells were dissolved in 10% acetic acid (200 μL/well) and the obtained solution was transferred to a 96-well plate for spectrometric measurements, at a wavelength of 560 nm.

[4] = system: HepG2 cells; assay: Cell cycle analysis (image cytometry, DAPI); assay type: cell-based, human; settings: 24 h at IC50 concentration (2.97 μM); control 6.02 ± 0.21%; mean ± SD
Description: HDAC inhibitors, in combination therapy with PPARγ agonists, exert synergistic/additive cytotoxic effects on cancer cells, resulting in proliferation arrest and increased cancerous cell apoptosis.
HepG2 cells were seeded on 6-well culture plates (Corning Inc., NY, USA) at the density of 1 × 10^5 cells/mL and cultured in the respective medium at 37 °C in a humidified atmosphere of 5% CO2. When the cells reached approximately 80–90% confluence, they were treated with 3, at a concentration of IC50, for 24 h. Subsequently, the cells were detached with trypsine, suspended in 250 μL of lysis buffer (Solution 10), supplemented with DAPI (10 μg/mL), and incubated for 5 min at 37 °C. Next, stabilization buffer (Solution 11) was added and the obtained cell suspension was applied on a NC slide and analyzed using a NucleoCounter NC-3000 Image Cytometer equipped with NucleoView software (https://chemometec.com/software/nucleoview/ (accessed on 20 November 2023). Experiments were repeated three times and the measurements in each experiment were run in duplicate.

| SMILES | FRAP reduction value corresponding to concentration of ascorbic acid ([1]; compound at 25 μg/mL) [µg/mL] | FRAP reduction value corresponding to concentration of ascorbic acid ([1]; compound at 75 μg/mL) [µg/mL] | FRAP reduction value corresponding to concentration of ascorbic acid ([1]; compound at 150 μg/mL) [µg/mL] | FRAP reduction value corresponding to concentration of ascorbic acid ([1]; compound at 200 μg/mL) [µg/mL] | IC50 [2] [µM] | SI (selectivity index) [2] | Invasion through artificial ECM model ([3]; HepG2, 1/10 IC50 to IC50, 24 h) | Invasion through artificial ECM model ([3]; HepG2, lowest concentration tested (1/10 of the IC50), 24 h) | Percentage of HepG2 cells in sub-G1 phase [4] [%] |
| --- | --- | --- | --- | --- | --- | --- | --- | --- | --- |
| O=C(C=C1SC(=O)NC1=O)Oc1ccccc1C=NNC(=S)Nc1ccccc1Cl [TZD–TSC 2] | 2.43 | 4.32 | 3.51 | 7.84 | 43.9 ± 1.74 | 1.02 | exhibited inhibitory effects | did not reduce the number of invaded cells |  |
| O=C(C=C1SC(=O)NC1=O)Oc1ccccc1C=NNC(=S)Nc1cccc(Cl)c1 [TZD–TSC 3] | 0.81 | 0.27 | 1.08 | 1.89 | 78.3 ± 5.47 | 1.28 | exhibited inhibitory effects |  | 40.36 ± 3.11 |
